Our source for the inhibition values is PMC11233931, “Remodeling tumor‐associated macrophage for anti‐cancer effects by rational design of irreversible inhibition of mitogen‐activated protein kinase‐activated protein kinase 2” (MedComm, 2024).

Experiment in all cases: Eurofins kinase selectivity profile against 380 other human recombinant kinases (Table S2)
What all share (type): biochemical

For test [1], the target named is T1, 380 human recombinant protein kinases (Homo sapiens, UniProt Q16816).
T1 construct: purchased Eurofins (Celle Lévescault)
T1 sequence (Q16816 whole entry): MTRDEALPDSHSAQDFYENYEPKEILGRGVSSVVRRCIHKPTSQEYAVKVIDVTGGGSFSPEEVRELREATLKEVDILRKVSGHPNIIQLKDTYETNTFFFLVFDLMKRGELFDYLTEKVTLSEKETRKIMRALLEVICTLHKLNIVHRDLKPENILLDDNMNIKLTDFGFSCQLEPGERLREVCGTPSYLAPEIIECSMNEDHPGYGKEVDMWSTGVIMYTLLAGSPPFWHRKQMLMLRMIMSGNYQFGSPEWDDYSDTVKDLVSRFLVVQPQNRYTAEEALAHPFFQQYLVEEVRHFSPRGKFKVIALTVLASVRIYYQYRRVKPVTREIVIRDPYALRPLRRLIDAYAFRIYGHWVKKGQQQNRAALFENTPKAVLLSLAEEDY
Conditions: PhKγ1(h), read-out: Inhibition rate. The gist of the method:
(§1)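 Outsourced panel: 380 human recombinant kinases; inhibitor tested at various concentrations; purpose: MK2 selectivity check.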

Test [2] addresses T2, 380 human recombinant protein kinases (Homo sapiens, UniProt Q9NRH2).
T2 construct: purchased Eurofins (Celle Lévescault)
T2 sequence (Q9NRH2 1-765): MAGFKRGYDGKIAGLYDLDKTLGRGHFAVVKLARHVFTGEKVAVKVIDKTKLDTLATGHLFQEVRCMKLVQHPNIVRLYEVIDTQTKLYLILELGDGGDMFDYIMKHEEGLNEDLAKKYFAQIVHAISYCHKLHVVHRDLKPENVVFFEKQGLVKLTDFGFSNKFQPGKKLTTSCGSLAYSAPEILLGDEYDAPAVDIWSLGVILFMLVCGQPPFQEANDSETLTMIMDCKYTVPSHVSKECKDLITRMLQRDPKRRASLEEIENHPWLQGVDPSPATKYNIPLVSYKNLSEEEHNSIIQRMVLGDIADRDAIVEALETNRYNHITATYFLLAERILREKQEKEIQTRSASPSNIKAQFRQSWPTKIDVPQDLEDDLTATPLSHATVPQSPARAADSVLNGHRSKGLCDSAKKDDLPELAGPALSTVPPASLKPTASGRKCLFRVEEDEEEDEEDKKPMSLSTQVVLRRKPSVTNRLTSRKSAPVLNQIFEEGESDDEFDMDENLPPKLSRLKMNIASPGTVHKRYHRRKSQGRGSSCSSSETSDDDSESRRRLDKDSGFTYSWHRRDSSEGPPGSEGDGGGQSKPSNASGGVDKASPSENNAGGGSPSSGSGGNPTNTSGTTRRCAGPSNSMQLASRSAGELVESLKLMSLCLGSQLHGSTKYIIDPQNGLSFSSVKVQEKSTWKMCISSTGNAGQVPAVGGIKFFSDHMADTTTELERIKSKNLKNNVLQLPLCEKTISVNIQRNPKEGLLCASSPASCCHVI
To be noted: SNRK(h), read-out: Inhibition rate (%). In short, it runs like this: as §1

Test [3] has as its target T3, 380 human recombinant protein kinases (Homo sapiens, UniProt O95835).
T3 construct: purchased Eurofins (Celle Lévescault)
T3 sequence (O95835 1-1130): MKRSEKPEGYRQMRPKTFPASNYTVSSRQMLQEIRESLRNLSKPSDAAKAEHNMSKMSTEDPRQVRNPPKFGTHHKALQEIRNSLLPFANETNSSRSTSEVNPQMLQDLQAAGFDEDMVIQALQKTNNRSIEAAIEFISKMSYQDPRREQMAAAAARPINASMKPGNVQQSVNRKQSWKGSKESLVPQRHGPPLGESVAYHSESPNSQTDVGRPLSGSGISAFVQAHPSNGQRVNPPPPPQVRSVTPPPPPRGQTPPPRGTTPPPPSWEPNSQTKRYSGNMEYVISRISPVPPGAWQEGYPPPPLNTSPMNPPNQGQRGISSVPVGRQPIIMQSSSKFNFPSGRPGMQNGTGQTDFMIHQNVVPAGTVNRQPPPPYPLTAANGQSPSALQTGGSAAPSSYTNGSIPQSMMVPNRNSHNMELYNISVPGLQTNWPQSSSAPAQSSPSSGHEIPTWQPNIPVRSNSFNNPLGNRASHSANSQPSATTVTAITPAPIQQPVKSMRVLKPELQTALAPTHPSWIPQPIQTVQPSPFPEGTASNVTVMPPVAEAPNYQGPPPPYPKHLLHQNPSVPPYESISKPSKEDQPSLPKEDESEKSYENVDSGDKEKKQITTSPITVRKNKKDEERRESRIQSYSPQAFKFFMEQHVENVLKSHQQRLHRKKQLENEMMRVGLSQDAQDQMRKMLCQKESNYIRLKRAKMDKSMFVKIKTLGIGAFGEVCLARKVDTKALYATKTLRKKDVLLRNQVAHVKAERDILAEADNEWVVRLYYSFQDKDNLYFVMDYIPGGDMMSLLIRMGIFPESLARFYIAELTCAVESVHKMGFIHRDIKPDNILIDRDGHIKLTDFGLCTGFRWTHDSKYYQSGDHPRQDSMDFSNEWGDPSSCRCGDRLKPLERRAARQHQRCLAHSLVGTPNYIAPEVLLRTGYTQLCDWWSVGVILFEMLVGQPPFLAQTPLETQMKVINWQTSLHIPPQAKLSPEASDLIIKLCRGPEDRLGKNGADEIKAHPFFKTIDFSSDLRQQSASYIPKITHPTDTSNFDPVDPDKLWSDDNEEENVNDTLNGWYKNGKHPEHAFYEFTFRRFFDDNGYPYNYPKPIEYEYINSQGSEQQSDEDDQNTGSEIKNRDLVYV
To be noted: LATS1(h), read-out: Inhibition rate. In short, it runs like this: as §1

Test [4] concerns the target T4, 380 human recombinant protein kinases (Homo sapiens, UniProt Q9NWZ3).
T4 construct: purchased Eurofins (Celle Lévescault)
T4 sequence (Q9NWZ3 1-460): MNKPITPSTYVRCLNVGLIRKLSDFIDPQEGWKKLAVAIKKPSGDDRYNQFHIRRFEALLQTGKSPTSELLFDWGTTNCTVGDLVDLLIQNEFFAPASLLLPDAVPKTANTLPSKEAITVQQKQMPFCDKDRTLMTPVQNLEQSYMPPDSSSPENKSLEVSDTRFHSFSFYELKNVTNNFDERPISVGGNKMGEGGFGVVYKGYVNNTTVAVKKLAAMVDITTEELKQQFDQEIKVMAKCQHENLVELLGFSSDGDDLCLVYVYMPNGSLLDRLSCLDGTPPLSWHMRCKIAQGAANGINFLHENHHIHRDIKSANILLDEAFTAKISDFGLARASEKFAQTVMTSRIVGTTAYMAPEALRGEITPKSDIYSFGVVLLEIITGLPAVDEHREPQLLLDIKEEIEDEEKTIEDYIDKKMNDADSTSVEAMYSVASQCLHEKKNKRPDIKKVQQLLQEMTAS
Conditions: IRAK4(h), read-out: Inhibition rate. In short, it runs like this: as §1

The target in test [5] is T5, 380 human recombinant protein kinases (Homo sapiens, UniProt P11309).
T5 construct: purchased Eurofins (Celle Lévescault)
T5 sequence (P11309 whole entry): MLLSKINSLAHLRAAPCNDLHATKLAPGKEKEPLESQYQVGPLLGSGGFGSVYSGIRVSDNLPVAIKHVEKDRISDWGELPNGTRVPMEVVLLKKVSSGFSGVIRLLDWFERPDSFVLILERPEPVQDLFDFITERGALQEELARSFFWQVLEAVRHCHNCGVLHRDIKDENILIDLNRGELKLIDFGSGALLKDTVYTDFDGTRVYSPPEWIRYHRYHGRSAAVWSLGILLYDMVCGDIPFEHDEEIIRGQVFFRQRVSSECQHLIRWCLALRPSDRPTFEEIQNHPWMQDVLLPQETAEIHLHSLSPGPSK
Conditions: Pim-1(h), read-out: Inhibition rate. The gist of the method:
as §1

One may read the inhibition as the relative decrease from the control value, in per cent. With `C=CC(=O)Nc1cc(-c2cc(-c3cc4c([nH]3)CCNC4=O)ccn2)ccc1OC(F)(F)F` [compound 11], the inhibition at 0.01 µM was -3% in test [1] (10 nM); 4% in test [2] (10 nM); -11% in test [3] (10 nM); -4% in test [4] (10 nM); -12% in test [5] (10 nM). In addition, the inhibition at 0.1 µM is -3% in test [1] (100 nM); 4% in test [2] (100 nM); -3% in test [3] (100 nM); -9% in test [4] (100 nM); 12% in test [5] (100 nM). In addition, the inhibition at 1 µM is 2% in test [1] (1000 nM); 9% in test [2] (1000 nM); 1% in test [3] (1000 nM); -2% in test [4] (1000 nM); 41% in test [5] (1000 nM).
